Data on 18 compounds can be found in ChEMBL document CHEMBL4811256, “Synthesis and evaluation of multi-target-directed ligands with BACE-1 inhibitory and Nrf2 agonist activities as potential agents against Alzheimer's disease” (Eur J Med Chem, 2021).

Data set [1] is described as follows: in vitro. As to conditions: PAMPA.
Data set [2] is described as follows: Glutathione peroxidase-like activity in pH 7.5 potassium phosphate buffer assessed as catalytic reduction of H2O2 by measuring initial velocity at 25 degreeC using GSH in presence of NADPH by UV absorbance analysis (reference value: 30.41+/- 2.06 microM/min). It counts as functional.
Data set [3] concerns the target Beta-secretase 1 (Homo sapiens, UniProt P56817). In words: Inhibition of BACE-1 (unknown origin) using Mca-Ser-Glu-Val-Asn-Leu-Asp-Ala-Glu-Phe-Lys-Dnp-OH as substrate preincubated for 30 mins followed by substrate addition and measured after 1 hr by FRET assay.
In data set [4] the test system is PC-12. Description: Cytotoxicity against rat PC-12 cells at 25 uM incubated for 24 hrs by MTT assay. It counts as cell-based. The conditions noted are these: pc-12, 24 h.
Data set [5] concerns PC-12. In words: Neuroprotective activity against H2O2-induced cell damage in rat PC-12 cells assessed as decrease in cell death at 10 uM pretreated for 12 hrs followed by H2O2 challenge by MTT assay. The format is functional, cell-based.
The test system of data set [6] is PC-12. Description: Protection against H2O2-induced ROS accumulation in rat PC-12 cells assessed as intracellular ROS level by measuring mean fluorescence intensity pretreated for 12 hrs followed by H2O2 challenge by DCFH-DA staining based flow cytometry. The conditions noted are these: dose 2.5-10 µM. It counts as functional, cell-based.
In data set [7] the test system is PC-12. Description: Protection against 6-OHDA-induced ROS accumulation in rat PC-12 cells assessed as intracellular ROS level by measuring mean fluorescence intensity pretreated for 12 hrs followed by 6-OHDA challenge by DCFH-DA staining based flow cytometry. The format is functional, cell-based. The conditions noted are these: dose 2.5-10 µM.
The subject of data set [8] is PC-12. In words: Cytoprotective activity against H2O2- induced cell death in rat PC-12 cells assessed as increase in viable cells pretreated for 12 hrs followed by H2O2 challenge by MTT assay. It counts as functional, cell-based. As to conditions: dose 2.5-10 µM.
The subject of data set [9] is HEK293. In words: Inhibition of amyloid beta(1 to 40) secretion in human HEK293T cells transfected with human APP harboring Swedish double mutant K595N/M596L at 1 uM measured after 24 hrs by ELISA. The format is functional, cell-based.

Structures are written as SMILES. Active and inactive are the calls of the source. The rule behind the calls is not given here.

Beta-secretase 1, sequence (P56817 whole entry): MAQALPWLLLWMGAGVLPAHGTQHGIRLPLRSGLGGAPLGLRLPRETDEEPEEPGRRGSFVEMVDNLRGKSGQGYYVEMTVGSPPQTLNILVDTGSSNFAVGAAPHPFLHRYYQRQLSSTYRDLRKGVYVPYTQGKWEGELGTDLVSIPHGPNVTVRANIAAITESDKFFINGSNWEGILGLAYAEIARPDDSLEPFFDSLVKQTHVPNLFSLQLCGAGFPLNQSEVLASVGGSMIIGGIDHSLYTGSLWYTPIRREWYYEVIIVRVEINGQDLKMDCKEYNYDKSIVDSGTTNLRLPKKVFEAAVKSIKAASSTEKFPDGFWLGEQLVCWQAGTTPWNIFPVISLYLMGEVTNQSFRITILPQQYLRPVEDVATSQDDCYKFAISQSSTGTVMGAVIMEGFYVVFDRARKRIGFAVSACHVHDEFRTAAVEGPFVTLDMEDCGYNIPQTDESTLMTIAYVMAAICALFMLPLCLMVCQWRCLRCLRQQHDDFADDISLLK

For `CN1C(C(=O)Nc2ccccn2)=C(O)c2ccccc2S1(=O)=O` [PIROXICAM], in [1], the Papp at 16 h came to 3.07 ×10⁻⁶ cm/s.
`CN1C(N)=N[C@](C)(c2cc(-n3[se]c4cc(C(F)(F)F)ccc4c3=O)ccc2F)CS1(=O)=O`: in data set [2], the V0 was 145 µM/min.
Turning to `Cc1cccc2c(=O)n(-c3ccc(F)c([C@]4(C)CS(=O)(=O)N(C)C(N)=N4)c3)[se]c12`, in data set [2], the V0 came to 217 µM/min.
With `CN1C(N)=N[C@](C)(c2cc(-n3[se]c4ccccc4c3=O)ccc2F)CS1(=O)=O`, the V0 in [2] is 156 µM/min. Inhibition in [3] was half-maximal at 1920 nM (IC50). In data set [4], the Activity result is recorded as “Non-Toxic”. In data set [5], the result was Active.
For `COc1ccc2c(=O)n(-c3ccc(F)c([C@]4(C)CS(=O)(=O)N(C)C(N)=N4)c3)[se]c2c1`, the V0 in data set [2] stood at 114 µM/min. The IC50 in data set [3] was 1550 nM.
For the compound `CN1C(N)=N[C@](C)(c2cc(-n3[se]c4ccc(C(F)(F)F)cc4c3=O)ccc2F)CS1(=O)=O`, the V0 in [2] is 185 µM/min. Also, the IC50 in data set [3] is 1600 nM. Moreover, the Activity result in data set [4] is “Non-Toxic”. Besides, in data set [5], the result was Active.
Take `CN1C(N)=N[C@](C)(c2cc(-n3[se]c4c(C(F)(F)F)cccc4c3=O)ccc2F)CS1(=O)=O`: the V0 in data set [2] came out at 180 µM/min.
Same read-out and setting: with `Cc1ccc2[se]n(-c3ccc(F)c([C@]4(C)CS(=O)(=O)N(C)C(N)=N4)c3)c(=O)c2c1` the figure was 146 µM/min.
Regarding `C[C@]12CC[C@@H]3c4ccc(O)cc4CC[C@H]3[C@@H]1CC[C@@H]2O` [ESTRADIOL], the Papp at 16 h in [1] amounted to 12.2 ×10⁻⁶ cm/s.
`Cc1ccc2c(=O)n(-c3ccc(F)c([C@]4(C)CS(=O)(=O)N(C)C(N)=N4)c3)[se]c2c1`: the V0 in data set [2] was determined as 130 µM/min.
For the compound `CN1C(N)=N[C@](C)(c2cc(-n3[se]c4ccc(F)cc4c3=O)ccc2F)CS1(=O)=O`, the V0 in data set [2] stood at 197 µM/min. This compound registered an IC50 in [3] of 1950 nM. Moreover, the Activity entry in data set [4] is given as “Non-Toxic”. Further, in [5], the result was Active.
In turn, `CCn1cc(C(=O)O)c(=O)c2cc(F)c(N3CCNC(C)C3)c(F)c21` (configuration not stated) [LOMEFLOXACIN] came in with a Papp at 16 h in data set [1] of 2.59 ×10⁻⁶ cm/s.
With `CN1C(N)=N[C@](C)(c2cc(NC(=O)c3ccc(F)cn3)ccc2F)CS1(=O)=O`, the V0 in data set [2] was found to be 29.4 µM/min. Moreover, the outcome in data set [6] and in data set [7] was inactive. The result in [5] was Active.
In turn, `Clc1cccc(Cl)c1N=C1NCCN1` [CLONIDINE] showed a Papp at 16 h in data set [1] of 7.36 ×10⁻⁶ cm/s.
Take `O=c1c2ccccc2[se]n1-c1ccccc1`: the V0 in data set [2] came to 153 µM/min. Further, the Activity result in [8], in data set [6] and in data set [7] was “Dose-Dependent Effect” in each case. In addition, the inhibition result in [9] is “inactive”. Besides, in [5], the outcome was Active.
On to `CN1C(N)=N[C@](C)(c2cc(-n3[se]c4c(F)cccc4c3=O)ccc2F)CS1(=O)=O`, for which, in [2], the V0 amounted to 242 µM/min.
`CN1C(N)=N[C@](C)(c2cc(-n3[se]c4cc(F)c(F)cc4c3=O)ccc2F)CS1(=O)=O`: the V0 in data set [2] came to 163 µM/min. The compound further returned an IC50 in [3] of 1120 nM. Also, the Activity entry in [4] is reported as “Non-Toxic”. Also, in data set [5], the result was Active.
`COc1ccc2[se]n(-c3ccc(F)c([C@]4(C)CS(=O)(=O)N(C)C(N)=N4)c3)c(=O)c2c1`: the V0 in data set [2] stood at 161 µM/min. This compound also came in with an IC50 in data set [3] of 1490 nM. Also, the Activity result in [4] is reported as “Non-Toxic”. The result in [5] was Active.
